Data: patent EP3046573B1, “AMYLIN ANALOGUES” (Zealand Pharma A/S, priority 2013, dated 2015)
Where two headings read alike, the source gives them in different places. Numbered stars: 1 amine (or outer) side, 2 acyl side, 3 side chain; on linkers, the order of the positions; unused ones are H or OH. Bridge positions count the residues as written; N and C are the ends. Square brackets hold non-standard residues; d marks the D form. Peptide text beside a SMILES is read from it. * marks the point of attachment. C20 diacid = O=C(O)CCCCCCCCCCCCCCCCCCC(=O)*; γGlu = O=C(O)[C@H](CCC(=O)[*:2])N[*:1]; NMeI = CC[C@H](C)[C@H](NC)C(=O)O; Sar = CNCC(=O)O

Legend:
[1] = biological target: T1, human calcitonin receptor (hCTR2) (Homo sapiens, UniProt P30988); assay: hCTR2 assay: induction of cAMP (AlphaScreen cAMP Assay kit) in COS7 cells expressing hCTR2; assay type: cell-based
T1 construct: expressed in transfected cells
T1 sequence (P30988 25-474): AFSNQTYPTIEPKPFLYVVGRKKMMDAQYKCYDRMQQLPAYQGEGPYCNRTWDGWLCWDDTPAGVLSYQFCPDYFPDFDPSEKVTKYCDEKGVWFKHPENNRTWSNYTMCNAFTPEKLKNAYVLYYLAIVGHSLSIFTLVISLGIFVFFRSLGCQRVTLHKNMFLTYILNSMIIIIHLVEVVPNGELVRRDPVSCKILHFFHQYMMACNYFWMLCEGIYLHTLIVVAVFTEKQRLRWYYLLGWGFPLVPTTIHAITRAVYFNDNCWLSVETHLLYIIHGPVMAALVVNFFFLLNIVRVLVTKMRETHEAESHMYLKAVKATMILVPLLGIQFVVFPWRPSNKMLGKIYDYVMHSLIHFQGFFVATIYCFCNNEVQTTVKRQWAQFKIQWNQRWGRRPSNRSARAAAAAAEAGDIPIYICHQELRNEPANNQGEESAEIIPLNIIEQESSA
In short: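 Stable hCTR2 clone in RAMP-naive COS7 cells; peptides titrated in Tyrode buffer (pH 7.4) with 100 µM IBMX, 0.1% casein, 15 min at 37° C. cAMP read by AlphaScreen after lysis; EC50 and efficacy relative to pramlintide from 4PL fit.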

[2] = Solubility assessment (turbidity absorbance at 325 nm); assay type: physicochemical; details: stock 2 mg/ml diluted 1:1, ambient temperature (typically 25°C), n=1; for Solubility, Acetate buffer pH 4: 100 mM acetate buffer pH 4.0; for Solubility, Acetate buffer pH 5: 100 mM acetate buffer pH 5.0; for Solubility, Histidine buffer pH 6: 100 mM histidine buffer pH 6.0; for Solubility, Histidine buffer pH 7: 100 mM histidine buffer pH 7.0; for Solubility, Phosphate buffer pH 6: 100 mM phosphate buffer pH 6.0; for Solubility, Phosphate buffer pH 7: 100 mM phosphate buffer pH 7.0; for Solubility, Phosphate buffer pH 7.5: 100 mM phosphate buffer pH7.5
In short: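 Stock 2 mg/ml peptide, H2O/HCl pH 2.5; 1:1 into 100 mM buffers: acetate pH 4.0/5.0, His pH 6.0/7.0, phosphate pH 6.0/7.0/7.5. A280 + A325, ~25°C, n=1. Soluble ≥ 1 mg/ml if A325 ≤ 0.02.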

[3] = cAMP induction in COS7 cells expressing hCTR2, average of a minimum of 3 determinations, read-out: hCTR2 EC50

Row | Structure (SMILES) | EC50 [1] [pM] | Solubility, Acetate buffer pH 4 [2] | Solubility, Acetate buffer pH 5 [2] | Solubility, Histidine buffer pH 6 [2] | Solubility, Histidine buffer pH 7 [2] | Solubility, Phosphate buffer pH 6 [2] | Solubility, Phosphate buffer pH 7 [2] | Solubility, Phosphate buffer pH 7.5 [2] | EC50 [1, 3] [pM]
1 | CC[C@H](C)[C@@H](C(=O)N[C@@H](CC(C)C)C(=O)N[C@@H](CO)C(=O)N[C@@H](CO)C(=O)N[C@H](C(=O)N[C@@H](CC(N)=O)C(=O)N[C@H](C(=O)NCC(=O)N[C@@H](CO)C(=O)N[C@@H](CC(N)=O)C(=O)N[C@H](C(=O)N1CCC[C@H]1C(N)=O)[C@@H](C)O)C(C)C)[C@@H](C)O)N(C)C(=O)[C@H](C)NC(=O)CN(C)C(=O)[C@H](Cc1ccccc1)NC(=O)[C@H](CC(N)=O)NC(=O)[C@H](CC(N)=O)NC(=O)[C@H](CO)NC(=O)[C@H](CO)NC(=O)[C@H](CCCNC(=N)N)NC(=O)[C@H](Cc1c[nH]cn1)NC(=O)[C@H](CC(C)C)NC(=O)[C@H](Cc1ccccc1)NC(=O)[C@H](CCC(=O)O)NC(=O)[C@H](C)NC(=O)[C@H](CC(C)C)NC(=O)[C@H](CCCNC(=N)N)NC(=O)[C@H](CCC(N)=O)NC(=O)[C@@H](NC(=O)[C@H](C)NC(=O)[C@@H]1CSSC[C@H](NC(=O)[C@H](CCCCN)NC(=O)[C@H](CCCNC(=N)N)NC(=O)CC[C@H](NC(=O)CCCCCCCCCCCCCCCCCCC(=O)O)C(=O)O)C(=O)N[C@@H](CC(N)=O)C(=O)N[C@@H]([C@@H](C)O)C(=O)N[C@@H](C)C(=O)N[C@@H]([C@@H](C)O)C(=O)N1)[C@@H](C)O [Compound 86, [19CD]-isoGlu-RKC()NTATC()ATQRLAEFLHRSSNNF-Gly(Me)-A-Ile(Me)-LSSTNVGSNTP-NH2] ({C20 diacid-γGlu}-RKCNTATCATQRLAEFLHRSSNNF[Sar]A[NMeI]LSSTNVGSNTP-NH2; disulfide 3-8) | 65 | SS (SS indicates solubility ≥ 1mg/ml) | SS (SS indicates solubility ≥ 1mg/ml) | SS (SS indicates solubility ≥ 1mg/ml) | SS (SS indicates solubility ≥ 1mg/ml) | SS (SS indicates solubility ≥ 1mg/ml) | SS (SS indicates solubility ≥ 1mg/ml) | SS (SS indicates solubility ≥ 1mg/ml) | –
2 | CC[C@H](C)[C@@H](C(=O)N[C@@H](CC(C)C)C(=O)N[C@@H](CO)C(=O)N[C@@H](CO)C(=O)N[C@H](C(=O)N[C@@H](CCC(=O)O)C(=O)N[C@H](C(=O)NCC(=O)N[C@@H](CO)C(=O)N[C@@H](CC(=O)O)C(=O)N[C@H](C(=O)N1CCC[C@H]1C(N)=O)[C@@H](C)O)C(C)C)[C@@H](C)O)N(C)C(=O)[C@H](C)NC(=O)CN(C)C(=O)[C@H](Cc1ccccc1)NC(=O)[C@H](CO)NC(=O)[C@H](CO)NC(=O)[C@H](CCCNC(=N)N)NC(=O)[C@H](Cc1c[nH]cn1)NC(=O)[C@H](CC(C)C)NC(=O)[C@H](Cc1ccccc1)NC(=O)[C@H](CCC(=O)O)NC(=O)[C@H](C)NC(=O)[C@H](CC(C)C)NC(=O)[C@H](CCCNC(=N)N)NC(=O)[C@H](CCC(N)=O)NC(=O)[C@@H](NC(=O)[C@H](C)NC(=O)[C@@H]1CSSC[C@H](NC(=O)[C@H](CCCNC(=N)N)NC(=O)CC[C@H](NC(=O)CCCCCCCCCCCCCCCCCCC(=O)O)C(=O)O)C(=O)N[C@@H](CC(N)=O)C(=O)N[C@@H]([C@@H](C)O)C(=O)N[C@@H](C)C(=O)N[C@@H]([C@@H](C)O)C(=O)N1)[C@@H](C)O [Compound 78, [19CD]-isoGlu-RC()NTATC()ATQRLAEFLHRSSF-Gly(Me)-A-Ile(Me)-LSSTEVGSDTP-NH2] ({C20 diacid-γGlu}-RCNTATCATQRLAEFLHRSSF[Sar]A[NMeI]LSSTEVGSDTP-NH2; disulfide 2-7) | – | SS (SS indicates solubility ≥ 1mg/ml) | SS (SS indicates solubility ≥ 1mg/ml) | SS (SS indicates solubility ≥ 1mg/ml) | SS (SS indicates solubility ≥ 1mg/ml) | SS (SS indicates solubility ≥ 1mg/ml) | SS (SS indicates solubility ≥ 1mg/ml) | SS (SS indicates solubility ≥ 1mg/ml) | 70
3 | CC[C@H](C)[C@@H](C(=O)N[C@@H](CC(C)C)C(=O)N[C@@H](CO)C(=O)N[C@@H](CO)C(=O)N[C@H](C(=O)N[C@@H](CC(N)=O)C(=O)N[C@H](C(=O)NCC(=O)N[C@@H](CO)C(=O)N[C@@H](CC(N)=O)C(=O)N[C@H](C(=O)N1CCC[C@H]1C(N)=O)[C@@H](C)O)C(C)C)[C@@H](C)O)N(C)C(=O)CN(C)C(=O)[C@H](CC(N)=O)NC(=O)[C@H](CC(N)=O)NC(=O)[C@H](CO)NC(=O)[C@H](CO)NC(=O)[C@H](Cc1c[nH]cn1)NC(=O)[C@H](Cc1c[nH]cn1)NC(=O)[C@H](CC(C)C)NC(=O)[C@H](Cc1ccccc1)NC(=O)[C@H](CCC(=O)O)NC(=O)[C@H](C)NC(=O)[C@H](CC(C)C)NC(=O)[C@H](CCCNC(=N)N)NC(=O)[C@H](CCC(N)=O)NC(=O)[C@@H](NC(=O)[C@H](C)NC(=O)[C@@H]1CSSC[C@H](NC(=O)[C@H](CCCNC(=N)N)NC(=O)CC[C@H](NC(=O)CCCCCCCCCCCCCCCCCCC(=O)O)C(=O)O)C(=O)N[C@@H](CC(N)=O)C(=O)N[C@@H]([C@@H](C)O)C(=O)N[C@@H](C)C(=O)N[C@@H]([C@@H](C)O)C(=O)N1)[C@@H](C)O [Compound 51, [19CD]-isoGlu-RC()NTATC()ATQRLAEFLHHSSNN-Gly(Me)-Ile(Me)-LSSTNVGSNTP-NH2] ({C20 diacid-γGlu}-RCNTATCATQRLAEFLHHSSNN[Sar][NMeI]LSSTNVGSNTP-NH2; disulfide 2-7) | – | II (II indicates solubility ≤ 1 mg/ml) | II (II indicates solubility ≤ 1 mg/ml) | II (II indicates solubility ≤ 1 mg/ml) | II (II indicates solubility ≤ 1 mg/ml) | II (II indicates solubility ≤ 1 mg/ml) | II (II indicates solubility ≤ 1 mg/ml) | II (II indicates solubility ≤ 1 mg/ml) | 93
4 | CC[C@H](C)[C@@H](C(=O)N[C@@H](CC(C)C)C(=O)N[C@@H](CO)C(=O)N[C@@H](CO)C(=O)N[C@H](C(=O)N[C@@H](CC(N)=O)C(=O)N[C@H](C(=O)NCC(=O)N[C@@H](CO)C(=O)N[C@@H](CC(N)=O)C(=O)N[C@H](C(=O)N1CCC[C@H]1C(N)=O)[C@@H](C)O)C(C)C)[C@@H](C)O)N(C)C(=O)[C@H](C)NC(=O)CN(C)C(=O)[C@H](Cc1ccccc1)NC(=O)[C@H](CC(N)=O)NC(=O)[C@H](CC(N)=O)NC(=O)[C@H](CO)NC(=O)[C@H](CO)NC(=O)[C@H](CCCNC(=N)N)NC(=O)[C@H](Cc1c[nH]cn1)NC(=O)[C@H](CC(C)C)NC(=O)[C@H](Cc1ccccc1)NC(=O)[C@H](CCC(=O)O)NC(=O)[C@H](C)NC(=O)[C@H](CC(C)C)NC(=O)[C@H](CCCNC(=N)N)NC(=O)[C@H](CCC(N)=O)NC(=O)[C@@H](NC(=O)[C@H](C)NC(=O)[C@@H]1CSSC[C@H](NC(=O)[C@H](CCCNC(=N)N)NC(=O)[C@H](Cc2c[nH]cn2)NC(=O)CC[C@H](NC(=O)CCCCCCCCCCCCCCCCCCC(=O)O)C(=O)O)C(=O)N[C@@H](CC(N)=O)C(=O)N[C@@H]([C@@H](C)O)C(=O)N[C@@H](C)C(=O)N[C@@H]([C@@H](C)O)C(=O)N1)[C@@H](C)O [Compound 85, [19CD]-isoGlu-HRC()NTATC()ATQRLAEFLHRSSNNF-Gly(Me)-A-Ile(Me)-LSSTNVGSNTP-NH2] ({C20 diacid-γGlu}-HRCNTATCATQRLAEFLHRSSNNF[Sar]A[NMeI]LSSTNVGSNTP-NH2; disulfide 3-8) | 83 | SS (SS indicates solubility ≥ 1mg/ml) | SS (SS indicates solubility ≥ 1mg/ml) | SS (SS indicates solubility ≥ 1mg/ml) | SS (SS indicates solubility ≥ 1mg/ml) | SS (SS indicates solubility ≥ 1mg/ml) | SS (SS indicates solubility ≥ 1mg/ml) | SS (SS indicates solubility ≥ 1mg/ml) | –
